Source: article PMC4926359, “Cloning, Expression and 3D Structure Prediction of Chitinase from Chitinolyticbacter meiyuanensis SYBC-H1” (International Journal of Molecular Sciences, 2016)

Tested on: CHI2 chitinase
Experiment: p-nitrophenol release at […] nm, Lineweaver-Burk
Format: biochemical, Chitinolyticbacter meiyuanensis
Settings: 50 mM sodium phosphate pH 7.0, 37 °C; substrate range 50-250 μM; unit contradictory in the paper: mM in b32 and b39, µmol/L in abstract b1

## CC(=O)N[C@H]1[C@H](Oc2ccc([N+](=O)[O-])cc2)O[C@H](CO)[C@@H](O)[C@@H]1O [p-NP-GlcNAc]
  Km: 23 mM
